Where two headings read alike, the source gives them in different places.
Experiments:
[1] = molecular target: T1, GMIIb (Golgi α-mannosidase) (Drosophila melanogaster, UniProt Q9VF33); assay: α-mannosidase inhibition assay with pNP-Man, GMIIb; type: biochemical; settings: for SI^a = IC50(LManII)/IC50(GMIIb): selectivity index
T1 sequence (Q9VF33 31-1249): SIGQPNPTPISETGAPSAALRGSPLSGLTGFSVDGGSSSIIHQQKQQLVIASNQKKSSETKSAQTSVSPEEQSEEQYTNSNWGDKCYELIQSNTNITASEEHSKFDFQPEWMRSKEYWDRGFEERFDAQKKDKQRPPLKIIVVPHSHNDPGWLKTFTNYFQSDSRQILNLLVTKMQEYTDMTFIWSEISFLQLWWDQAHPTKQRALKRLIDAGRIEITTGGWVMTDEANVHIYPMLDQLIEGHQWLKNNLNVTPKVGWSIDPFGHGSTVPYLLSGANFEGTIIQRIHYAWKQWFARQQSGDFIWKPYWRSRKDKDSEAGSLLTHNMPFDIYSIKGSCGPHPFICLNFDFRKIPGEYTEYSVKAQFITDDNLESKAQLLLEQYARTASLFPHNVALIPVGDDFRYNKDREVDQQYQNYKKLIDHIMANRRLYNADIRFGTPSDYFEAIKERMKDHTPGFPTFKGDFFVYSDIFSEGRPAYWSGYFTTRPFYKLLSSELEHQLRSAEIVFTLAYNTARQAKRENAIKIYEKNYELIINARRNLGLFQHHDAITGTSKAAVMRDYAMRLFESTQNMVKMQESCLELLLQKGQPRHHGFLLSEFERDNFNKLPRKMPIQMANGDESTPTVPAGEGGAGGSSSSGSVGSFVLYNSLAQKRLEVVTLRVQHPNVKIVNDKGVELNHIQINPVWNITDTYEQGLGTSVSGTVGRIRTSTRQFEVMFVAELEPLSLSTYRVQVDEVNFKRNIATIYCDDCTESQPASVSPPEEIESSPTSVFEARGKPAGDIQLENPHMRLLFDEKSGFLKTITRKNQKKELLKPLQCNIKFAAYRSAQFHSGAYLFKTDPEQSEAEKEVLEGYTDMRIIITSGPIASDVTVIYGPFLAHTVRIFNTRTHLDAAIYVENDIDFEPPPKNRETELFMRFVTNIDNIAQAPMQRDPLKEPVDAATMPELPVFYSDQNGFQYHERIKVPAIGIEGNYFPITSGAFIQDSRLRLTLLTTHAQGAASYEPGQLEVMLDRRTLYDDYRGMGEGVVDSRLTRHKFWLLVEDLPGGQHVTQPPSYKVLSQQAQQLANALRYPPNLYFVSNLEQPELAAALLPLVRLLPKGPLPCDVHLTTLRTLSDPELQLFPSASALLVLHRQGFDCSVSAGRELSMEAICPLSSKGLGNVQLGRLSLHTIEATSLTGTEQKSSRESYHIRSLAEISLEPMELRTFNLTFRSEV

[2] = molecular target: T2, AMAN-2 (Golgi α-mannosidase) (Caenorhabditis elegans, UniProt Q2PJ74); assay: α-mannosidase inhibition assay with pNP-Man, AMAN-2; type: biochemical; settings: for SI^b = IC50(JBMan)/IC50(AMAN-2): selectivity index
T2 sequence (Q2PJ74 27-1145): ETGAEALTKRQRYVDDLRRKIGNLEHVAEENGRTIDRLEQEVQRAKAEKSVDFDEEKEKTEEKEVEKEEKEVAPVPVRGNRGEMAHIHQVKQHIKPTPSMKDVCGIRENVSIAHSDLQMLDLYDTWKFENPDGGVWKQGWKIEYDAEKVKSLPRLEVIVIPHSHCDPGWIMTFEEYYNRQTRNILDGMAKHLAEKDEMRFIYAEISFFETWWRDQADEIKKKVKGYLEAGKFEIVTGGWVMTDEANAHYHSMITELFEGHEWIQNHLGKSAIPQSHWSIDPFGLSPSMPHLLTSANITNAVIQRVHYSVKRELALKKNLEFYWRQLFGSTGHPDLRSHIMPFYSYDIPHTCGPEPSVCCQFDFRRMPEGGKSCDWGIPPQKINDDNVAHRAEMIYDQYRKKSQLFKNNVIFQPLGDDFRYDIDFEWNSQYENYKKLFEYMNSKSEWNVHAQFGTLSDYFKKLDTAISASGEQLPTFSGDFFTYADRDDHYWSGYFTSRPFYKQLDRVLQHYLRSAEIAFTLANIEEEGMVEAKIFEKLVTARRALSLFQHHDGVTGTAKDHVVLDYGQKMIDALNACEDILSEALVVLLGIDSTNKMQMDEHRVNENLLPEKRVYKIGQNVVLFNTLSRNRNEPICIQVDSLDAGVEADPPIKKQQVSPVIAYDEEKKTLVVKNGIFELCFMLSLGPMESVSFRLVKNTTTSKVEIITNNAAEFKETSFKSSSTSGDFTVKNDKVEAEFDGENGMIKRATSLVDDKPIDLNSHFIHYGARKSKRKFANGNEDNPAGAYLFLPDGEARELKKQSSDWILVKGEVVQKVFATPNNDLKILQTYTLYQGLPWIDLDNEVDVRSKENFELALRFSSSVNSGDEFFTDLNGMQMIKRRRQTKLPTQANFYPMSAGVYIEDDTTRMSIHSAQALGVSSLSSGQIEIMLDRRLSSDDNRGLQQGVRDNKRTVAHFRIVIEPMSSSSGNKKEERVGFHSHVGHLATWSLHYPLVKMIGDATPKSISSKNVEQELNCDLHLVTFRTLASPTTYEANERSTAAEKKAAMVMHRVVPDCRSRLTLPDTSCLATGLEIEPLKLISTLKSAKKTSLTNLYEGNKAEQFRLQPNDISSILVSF

[3] = read-out: IC50 GMIIb, 2 mM pNP-Man, pH 6.0
[4] = read-out: Ki GMIIb, Dixon plots, pNP-Man 0.5-4 mM, pH 6.0
[5] = read-out: IC50 AMAN-2, 2 mM pNP-Man, pH 6.0
[6] = read-out: Ki AMAN-2, Dixon plots, pNP-Man 0.5-4 mM, pH 6.0

SMILES	SI^a = IC50(LManII)/IC50(GMIIb) [1]	SI^b = IC50(JBMan)/IC50(AMAN-2) [2]	IC50 [1, 3]	Ki [1, 4]	IC50 [2, 5]	Ki [2, 6]	IC50 ([1]; read-out: IC50 GMIIb, 2 mM pNP-Man, pH 6.0, listed as N-2-naphtylmethyl)	IC50 ([2]; read-out: IC50 AMAN-2, 2 mM pNP-Man, pH 6.0, listed as N-2-naphtylmethyl)	Ki ([1]; read-out: Ki(GMIIb))	Ki [1]	Ki [2]	IC50 [1]	IC50 [2]
OC[C@@H]1[C@H](O)[C@H](O)CN1Cc1ccccc1 [Compound 4, N-Benzyl-1,4-dideoxy-1,4-imino-d-lyxitol]	61	124										11 ± 1.3 µM	8.7 ± 0.1 µM
Cl.N=C(N)NCc1ccc(CN2C[C@@H](O)[C@@H](O)[C@H]2CO)cc1 [Compound 9, 1,4-Dideoxy-N-4-guanidinomethylbenzyl-1,4-imino-d-lyxitol hydrochloride]	142	9	2.4 ± 0.1 µM	0.83 µM	12.5 ± 0.1 µM	10.3 µM							
OC[C@@H]1[C@H](O)[C@H](O)CN1CC1CCCCC1 [Compound 19, N-Cyclohexylmethyl-1,4-dideoxy-1,4-imino-d-lyxitol]	54	75										3.5 ± 0.3 µM	17.3 ± 0.1 µM
OC[C@@H]1[C@H](O)[C@H](O)CN1CC1CCOCC1 [Compound 20]	63	30	15.5 ± 0.5 µM		84.3 ± 0.1 µM								
CCCCCCCCCCCCN1C[C@@H](O)[C@@H](O)[C@H]1CO [Compound 21, 1,4-Dideoxy-N-dodecyl-1,4-imino-d-lyxitol]	30	9										0.4 ± 0.05 µM	2.3 ± 0.1 µM

Continued, in another order:

SI^a = IC50(LManII)/IC50(GMIIb) [1]	SI^b = IC50(JBMan)/IC50(AMAN-2) [2]	IC50 [1, 3]	Ki [1, 4]	IC50 [2, 5]	Ki [2, 6]	IC50 ([1]; read-out: IC50 GMIIb, 2 mM pNP-Man, pH 6.0, listed as N-2-naphtylmethyl)	IC50 ([2]; read-out: IC50 AMAN-2, 2 mM pNP-Man, pH 6.0, listed as N-2-naphtylmethyl)	Ki ([1]; read-out: Ki(GMIIb))	Ki [1]	Ki [2]	SMILES	IC50 [1]	IC50 [2]
105	269	4.4 ± 0.2 µM		3.5 ± 0.1 µM							OCC1C(O)C(O)CN1Cc1ccc(I)cc1 (stereo not drawn) [Compound 16, 1,4-Dideoxy-1,4-imino-N-4-iodobenzyl-d-lyxitol]		
111	812	7.6 ± 1.1 µM		2.4 ± 0.1 µM		2.4 µM	7.6 µM				OC[C@@H]1[C@H](O)[C@H](O)CN1Cc1ccc2ccccc2c1 [Compound 17, 1,4-Dideoxy-1,4-imino-N-(naphthalen-2-ylmethyl)-d-lyxitol]		
27	86	0.45 ± 0.08 µM	0.16 µM	0.21 ± 0.1 µM	0.15 µM			0.15 µM			OCC1C(O)C(O)CN1CCc1cccc2ccccc12 (stereo not drawn) [Compound 18, 1,4-Dideoxy-1,4-imino-N-(2-(naphthalen-1-yl)ethyl)-d-lyxitol]		
18	3										Cl.N=C(N)NCCCCCCCCCCN1C[C@@H](O)[C@@H](O)[C@H]1CO [Compound 25, 1,4-Dideoxy-N-(10-guanidinodecyl)-1,4-imino-d-lyxitol hydrochloride]	0.45 ± 0.1 µM	2.7 ± 0.1 µM
35	3								0.04 µM	0.78 µM	Cl.N=C(N)CCCCCCCCCN1C[C@@H](O)[C@@H](O)[C@H]1CO [Compound 26, N-(9-amidinononyl)-1,4-dideoxy-1,4-imino-d-lyxitol hydrochloride]	0.19 ± 0.02 µM	1.4 ± 0.1 µM

— article PMC7614232 (Organic & biomolecular chemistry, 2022)
